Assay results from publication PMC6957262 (Bioorganic & medicinal chemistry letters, 2015).

Molecular target: T1, hTRPV1 (Homo sapiens, UniProt Q8NER1)
Experiment: hTRPV1 antagonism of capsaicin
Assay type: cell-based
Conditions: improvement over parent 1

T1 sequence (Q8NER1 whole entry): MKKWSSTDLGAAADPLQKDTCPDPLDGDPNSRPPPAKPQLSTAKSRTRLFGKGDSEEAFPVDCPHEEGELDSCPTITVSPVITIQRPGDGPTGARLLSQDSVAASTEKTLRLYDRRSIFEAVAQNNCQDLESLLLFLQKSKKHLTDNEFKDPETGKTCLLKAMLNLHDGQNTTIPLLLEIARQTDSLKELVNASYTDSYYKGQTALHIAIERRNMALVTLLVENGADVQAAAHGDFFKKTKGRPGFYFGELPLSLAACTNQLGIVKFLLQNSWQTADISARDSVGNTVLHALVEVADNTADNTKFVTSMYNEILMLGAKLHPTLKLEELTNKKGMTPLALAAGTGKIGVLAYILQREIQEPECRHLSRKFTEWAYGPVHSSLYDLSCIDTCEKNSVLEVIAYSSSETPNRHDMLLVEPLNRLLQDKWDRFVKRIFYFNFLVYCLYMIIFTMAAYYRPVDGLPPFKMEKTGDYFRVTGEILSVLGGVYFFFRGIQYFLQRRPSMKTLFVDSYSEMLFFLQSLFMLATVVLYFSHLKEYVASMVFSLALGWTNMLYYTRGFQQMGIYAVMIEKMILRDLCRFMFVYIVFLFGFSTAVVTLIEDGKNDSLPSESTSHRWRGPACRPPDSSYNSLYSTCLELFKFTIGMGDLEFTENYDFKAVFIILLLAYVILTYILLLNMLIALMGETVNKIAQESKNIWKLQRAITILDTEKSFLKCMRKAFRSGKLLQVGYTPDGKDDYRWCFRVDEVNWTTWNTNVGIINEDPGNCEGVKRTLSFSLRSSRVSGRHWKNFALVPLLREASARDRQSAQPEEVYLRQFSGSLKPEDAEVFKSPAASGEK

fold more potent than parent 1 [fold]	Structure (SMILES)
3	Cc1cccc(C(C(=O)NCc2ccc(C(F)(F)F)nc2N2CCC(C)CC2)c2ccc(NS(C)(=O)=O)c(F)c2)c1 (stereo not drawn) [Compound 34]

Same assay, conditions: less potent than parent

fold loss in antagonistic potency compared to the corresponding parent (1 or 2)	Structure (SMILES)
60 fold	Cc1cccc(C(C(=O)NCc2ccc(C(F)(F)F)nc2SC2CCCCC2)c2ccc(NS(C)(=O)=O)c(F)c2)c1 (stereo not drawn) [Compound 35]
3–8 fold	Cc1ccc(C(C(=O)NCc2ccc(C(F)(F)F)nc2N2CCC(C)CC2)c2ccc(NS(C)(=O)=O)c(F)c2)cc1 (stereo not drawn) [Compound 36]
3–8 fold	Cc1ccc(C(C(=O)NCc2ccc(C(F)(F)F)nc2SC2CCCCC2)c2ccc(NS(C)(=O)=O)c(F)c2)cc1 (stereo not drawn) [Compound 37]

Further lines, the molecule ahead of its results:

Structure (SMILES)	fold loss in antagonistic potency compared to the corresponding parent (1 or 2)
CCC(C(=O)NCc1ccc(C(F)(F)F)nc1N1CCC(C)CC1)c1ccc(NS(C)(=O)=O)c(F)c1 (stereo not drawn) [Compound 21]	5 fold
CC1CCN(c2nc(C(F)(F)F)ccc2CNC(=O)C(c2ccc(NS(C)(=O)=O)c(F)c2)C2CCCC2)CC1 (stereo not drawn) [Compound 22]	> 100 fold
CS(=O)(=O)Nc1ccc(C(C(=O)NCc2ccc(C(F)(F)F)nc2SC2CCCCC2)C2CCCC2)cc1F (stereo not drawn) [Compound 23]	> 100 fold
CC1CCN(c2nc(C(F)(F)F)ccc2CNC(=O)C(c2ccc(NS(C)(=O)=O)c(F)c2)C2CCCCC2)CC1 (stereo not drawn) [Compound 24]	> 100 fold
CS(=O)(=O)Nc1ccc(C(C(=O)NCc2ccc(C(F)(F)F)nc2SC2CCCCC2)C2CCCCC2)cc1F (stereo not drawn) [Compound 25]	> 100 fold
Cc1ccccc1C(C(=O)NCc1ccc(C(F)(F)F)nc1N1CCC(C)CC1)c1ccc(NS(C)(=O)=O)c(F)c1 (stereo not drawn) [Compound 32]	> 140 fold
Cc1ccccc1C(C(=O)NCc1ccc(C(F)(F)F)nc1SC1CCCCC1)c1ccc(NS(C)(=O)=O)c(F)c1 (stereo not drawn) [Compound 33]	> 140 fold

Molecular target: T1, hTRPV1
Experiment: hTRPV1 antagonism of pH activation
Assay type: cell-based
Conditions: heat (45 °C), NADA

fold weaker potency toward the other activators compared to 1	Structure (SMILES)
5–15 fold	Cc1cccc(C(C(=O)NCc2ccc(C(F)(F)F)nc2N2CCC(C)CC2)c2ccc(NS(C)(=O)=O)c(F)c2)c1 (stereo not drawn) [Compound 34]
